Laboratory results published in patent US20030225065A1, “Bis-arylsulfones” (priority 2002, published 2003).
Where a name gives a salt, the structure may show the parent alone.

Molecular target: T1, cloned human 5-HT6 receptor (Homo sapiens, UniProt P50406)
T1 construct: host or cells: HeLa cells (G-418 selection), membrane preparation
Test: 5-HT6 receptor binding assay ([3H]-LSD radioligand, SPA beads, Hela cell membranes)
Conditions: IC50 converted to Ki by the Cheng-Prusoff equation
Method: Harvested intact cells are washed once in cold phosphate-buffered saline. The cells are pelleted and resuspended in 100 ml of cold 50 mM Tris, 5 mM EDTA and 5 mM EGTA, pH 7.4. Homogenization is with a Vir Tishear generator, 4 cycles for 30 seconds each at setting 50. The homogenized cells are centrifuged at 700 RPM (1000×g) for 10 minutes and the supernatant is removed. […] The rehomogenized cells are then centrifuged at 700 RPM (1000×g) for 10 minutes and the supernatant is removed. […] The membrane pellet is resupended in 50-8-ml of assay buffer containing HEPES 20 mM, MgCl2 10 mM, NaCl 150 mM, EDTA 1 mM, pH 7.4 and stored frozen in aliqouts at −70° C.
The radioligand binding assay used [^3H]-lysergic acid diethylamide (LSD). The assay is carried out in Wallac 96-well sample plates by the addition of 11 μl of the test sample at the appropriate dilution (the assay employed 11 serial concentrations of samples run in duplicate), 11 μl of radioligand, and 178 μl of a washed mixture of WGA-coated SPA beads and membranes in binding buffer. The plates are shaken for about 5 minutes and then incubated at room temperature for 1 hour. The plates are then loaded into counting cassettes and counted in a Wallac MicroBeta Trilux scintillation counter.
Eleven serial dilutions of test compounds are distributed to assay plates using the PE/Cetus Pro/Pette pipetter. […]

T1 sequence (P50406 whole entry): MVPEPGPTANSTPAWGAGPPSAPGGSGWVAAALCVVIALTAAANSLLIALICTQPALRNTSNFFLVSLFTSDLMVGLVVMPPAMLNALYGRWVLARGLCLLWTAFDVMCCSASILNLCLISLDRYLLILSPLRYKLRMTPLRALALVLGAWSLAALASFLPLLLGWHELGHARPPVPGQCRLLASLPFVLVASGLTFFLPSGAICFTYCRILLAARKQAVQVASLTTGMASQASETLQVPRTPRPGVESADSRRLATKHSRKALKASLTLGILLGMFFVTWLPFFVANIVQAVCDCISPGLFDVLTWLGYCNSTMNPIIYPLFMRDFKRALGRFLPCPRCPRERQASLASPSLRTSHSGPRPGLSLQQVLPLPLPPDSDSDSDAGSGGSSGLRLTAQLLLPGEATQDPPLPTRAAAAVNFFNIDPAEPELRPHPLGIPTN

CCNc1cc(N2CCNCC2)ccc1S(=O)(=O)c1ccccc1 [Example 13, N-ethyl-2-(phenylsulfonyl)-5-(1-piperazinyl) phenylamine] showed a Ki of 2.7 nM.

Test system: not given
Test: not given
Conditions: not given

First: CNc1cc(N2CCCNCC2)ccc1S(=O)(=O)c1cccc(F)c1 (as salt: HCl)
Second: Nc1cc(N2CCCNCC2)ccc1S(=O)(=O)c1cccc(F)c1 (as salt: hydrochloride) [Example 2, 5-(1,4-diazepan-1-yl)-2-[(3-fluorophenyl)sulfonyl]phenylamine]
The melting point of the first is higher: 153 to 154 °C for the first, 106 to 108 °C for the second.

First: Nc1cc(N2CCNCC2)ccc1S(=O)(=O)c1ccccc1 (as salt: salt) [Example 1, 2-(phenylsulfonyl)-5-(1-piperazinyl)phenylamine]
Second: CCNc1cc(N2CCNCC2)ccc1S(=O)(=O)c1ccccc1 (as salt: salt) [Example 13, N-ethyl-2-(phenylsulfonyl)-5-(1-piperazinyl) phenylamine]
The melting point of the first is higher: 165 to 166 °C for the first, 121 to 123 °C for the second.

Compared with Nc1cc(N2CCNCC2)ccc1S(=O)(=O)c1ccc(F)cc1 [Example 3, 2-[(4-fluorophenyl)sulfonyl]-5-(1-piperazinyl) phenylamine], Cc1ccc(S(=O)(=O)c2ccc(N3CCNCC3)cc2N)cc1 [Example 5, 2-[(4-methylphenyl)sulfonyl]-5-(1-piperazinyl) phenylamine] is lower in melting point: 144 to 146 °C for the first, 102 to 106 °C for the second.

First: CN1CCN(c2ccc(S(=O)(=O)c3ccc(F)cc3)c(N)c2)CC1 [Example 4, 2-[(4-fluorophenyl)sulfonyl]-5-(4-methyl-1-piperazinyl) phenylamine]
Second: Cc1ccc(S(=O)(=O)c2ccc(N3CCN(C)CC3)cc2N)cc1 [Example 6, 2-[(4-methylphenyl)sulfonyl]-5-(4-methyl-1-piperazinyl) phenylamine]
The melting point of the first is lower: 85 to 89 °C for the first, 148 to 151 °C for the second.

CN1CCN(c2ccc(S(=O)(=O)c3ccccc3)c(N)c2)CC1 [Example 7, 5-(4-methyl-1-piperazinyl)-2-(phenylsulfonyl) phenylamine] and CN1CCN(c2ccc(S(=O)(=O)c3cccc(F)c3)c(N)c2)CC1 [Example 8, 2-[(3-fluorophenyl)sulfonyl]-5-(4-methyl-1-piperazinyl) phenylamine] cannot be ordered by melting point: 90 to 93 °C for the first, 89 to 92 °C for the second.
